Among the data in patent publication US20030199692A1, “Propanoic acid derivatives that inhibit the binding of integrins to their receptors” (priority 1999, published 2003) are IC50 values, retold here.

The target in this experiment is T1, α4β1 integrin (Homo sapiens, UniProt P05556+P13612).
T1 construct: endogenous in cells; host or cells: Ramos cells
T1 sequence (P13612 34-1032): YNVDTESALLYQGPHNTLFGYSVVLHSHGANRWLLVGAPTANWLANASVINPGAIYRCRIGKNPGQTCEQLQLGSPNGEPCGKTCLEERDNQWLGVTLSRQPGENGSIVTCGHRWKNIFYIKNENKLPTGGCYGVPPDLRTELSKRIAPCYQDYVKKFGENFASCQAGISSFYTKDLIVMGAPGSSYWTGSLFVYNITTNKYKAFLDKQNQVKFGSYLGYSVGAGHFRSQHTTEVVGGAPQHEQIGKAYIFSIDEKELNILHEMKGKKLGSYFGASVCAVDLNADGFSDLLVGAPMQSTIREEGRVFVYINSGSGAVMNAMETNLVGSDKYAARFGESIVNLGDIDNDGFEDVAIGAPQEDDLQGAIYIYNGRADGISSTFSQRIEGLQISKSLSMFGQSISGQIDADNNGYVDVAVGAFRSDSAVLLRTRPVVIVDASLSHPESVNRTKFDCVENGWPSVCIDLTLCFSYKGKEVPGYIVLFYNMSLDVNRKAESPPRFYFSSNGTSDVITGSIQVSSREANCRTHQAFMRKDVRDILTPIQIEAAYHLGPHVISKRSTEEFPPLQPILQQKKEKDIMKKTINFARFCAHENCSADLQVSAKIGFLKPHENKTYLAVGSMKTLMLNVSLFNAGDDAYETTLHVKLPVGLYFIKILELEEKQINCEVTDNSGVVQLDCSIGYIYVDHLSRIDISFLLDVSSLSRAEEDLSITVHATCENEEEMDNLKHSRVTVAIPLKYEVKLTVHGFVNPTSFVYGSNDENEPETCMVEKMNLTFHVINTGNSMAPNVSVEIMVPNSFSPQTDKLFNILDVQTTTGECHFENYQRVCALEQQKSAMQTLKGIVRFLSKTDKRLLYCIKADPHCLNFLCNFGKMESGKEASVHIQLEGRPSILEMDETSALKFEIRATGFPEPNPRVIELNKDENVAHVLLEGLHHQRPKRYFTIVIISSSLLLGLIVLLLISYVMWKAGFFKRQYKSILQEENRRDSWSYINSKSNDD
T1 sequence (P05556 21-798): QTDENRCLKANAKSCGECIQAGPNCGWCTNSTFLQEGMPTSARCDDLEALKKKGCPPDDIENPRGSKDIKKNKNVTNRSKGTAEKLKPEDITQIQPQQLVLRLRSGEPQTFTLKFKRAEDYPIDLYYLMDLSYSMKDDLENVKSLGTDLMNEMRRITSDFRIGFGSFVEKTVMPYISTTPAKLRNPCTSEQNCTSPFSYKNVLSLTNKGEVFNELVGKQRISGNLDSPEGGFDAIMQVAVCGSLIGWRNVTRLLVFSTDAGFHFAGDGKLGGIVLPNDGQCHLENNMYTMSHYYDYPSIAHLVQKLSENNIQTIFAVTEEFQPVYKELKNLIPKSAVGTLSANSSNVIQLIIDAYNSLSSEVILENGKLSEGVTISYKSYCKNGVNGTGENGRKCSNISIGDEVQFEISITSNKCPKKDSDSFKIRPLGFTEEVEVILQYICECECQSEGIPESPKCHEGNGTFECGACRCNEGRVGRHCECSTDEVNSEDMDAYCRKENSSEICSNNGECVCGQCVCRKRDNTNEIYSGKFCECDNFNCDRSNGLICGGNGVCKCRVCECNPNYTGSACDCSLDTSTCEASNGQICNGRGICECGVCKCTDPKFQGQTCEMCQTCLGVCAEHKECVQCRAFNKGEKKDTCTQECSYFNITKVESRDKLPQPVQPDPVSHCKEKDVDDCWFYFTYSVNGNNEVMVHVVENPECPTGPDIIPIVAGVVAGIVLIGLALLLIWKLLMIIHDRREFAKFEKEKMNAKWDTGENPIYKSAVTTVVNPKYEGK
The experiment can be described thus: Inhibition of adhesion of calcein AM-labeled Ramos cells to CS1 (fibronectin) peptide-conjugated ovalbumin. Type of experiment: cell-based. To be noted: Table 4; Ramos cell adhesion to CS1-conjugated ovalbumin, 30 minutes at 37° C. As for the experimental part: The ability of compounds of the present invention to inhibit binding is determined by a procedure in which a 26-amino acid peptide containing the CS1 sequence of fibronectin with an N-terminal Cys ([…]) was coupled to maleimide activated ovalbumin. Bovine serum albumin (BSA) and CS1 conjugated ovalbumin were coated onto 96-well polystyrene plates at 0.5 mg/ml in TBS (50 mM Tris, pH 7.5; 150 mM NaCl) at 4° C. for 16 hours. The plates were washed three times with TBS and blocked with TBS containing 3% BSA at room temperature for 4 hours. Blocked plates were washed three times in binding buffer (TBS; 1 mM MgCl2; 1 mM CaCl2; 1 mM MnCl2) prior to assay. Ramos cells fluorescently labeled with calcein AM were resuspended in binding buffer (10^7 cells/ml) and diluted 1:2 with same buffer with or without compound. The cells were added immediately to the wells (2.5×10^5 cells/well) and incubated for 30 minutes at 37° C. Following three washes with binding buffer, adherent cells were lysed and quantitated using a fluorometer. IC50 is defined as the dose required to give 50% inhibition. MS in Table 3 stands for Mass Spec. nd stands for not determined in the Tables. A stands for inhibition in Table 2, and the percent inhibition indicates the inhibition of cell adhesion when compound is included in the assay at a concentration of 100 μM. The lower the IC50 value and the greater the percentage of inhibition, the more efficient the compound is at prevention of cell adhesion.
In the case of `CCCCC(C(=O)N[C@@H](CC(=O)O)c1cccc(F)c1)n1cc(C)cc(Cc2ccccc2)c1=O` (stereo partly drawn) [(3S)-3-(3-fluorophenyl)-3-({2-[5-methyl-2-oxo-3-(phenylmethyl)-1(2H)-pyridinyl]hexanoyl}amino)propanoic acid], the half-inhibitory concentration (IC50) is 13 nM.

Turning to `CCCCC(C(=O)N[C@@H](CC(=O)O)c1cccc(OC(C)C)c1)n1ccc(CCc2ccccc2)cc1=O` (stereo partly drawn) [(3S)-3-(3-isopropoxyphenyl)-3-({2-[2-oxo-4-(2-phenylethyl)pyridin-1(2H)-yl]hexanoyl}amino)propanoic acid], the IC50 is 95 nM.

As to `CCCCC(C(=O)N[C@@H](CC(=O)O)c1cccc(OC(C)C)c1)n1cc(C)cc(Cc2ccccc2OC)c1=O` (stereo partly drawn) [(3S)-3-(3-isopropoxyphenyl)-3-({2-[3-(2-methoxybenzyl)-5-methyl-2-oxopyridin-1(2H)-yl]hexanoyl}amino)propanoic acid], the 50% inhibitory concentration (IC50) was 4 nM.

On to `CCCCC(C(=O)N[C@@H](CC(=O)O)c1ccc(CC)cc1)n1cc(C)cc(Cc2ccccc2)c1=O` (stereo partly drawn) [(3S)-3-(4-ethylphenyl)-3-({2-[5-methyl-2-oxo-3-(phenylmethyl)-1(2H)-pyridinyl]hexanoyl}amino)propanoic acid], for which the concentration for half-maximal inhibition (IC50) is 40 nM.

Regarding `CCCCC(C(=O)N[C@@H](CC(=O)O)c1cccc(OC(C)C)c1)n1cc(C)cc(Cc2c(Cl)cccc2Cl)c1=O` (stereo partly drawn) [(3S)-3-({2-[3-(2,6-dichlorobenzyl)-5-methyl-2-oxopyridin-1(2H)-yl]hexanoyl}amino)-3-(3-isopropoxyphenyl)propanoic acid], the half-inhibitory concentration (IC50) was 275 nM.

With `CCCCC(C(=O)N[C@@H](CC(=O)O)c1cccc(OC(C)C)c1)n1cc(C)cc(Cc2ccccc2Cl)c1=O` (stereo partly drawn) [(3S)-3-({2-[3-(2-chlorobenzyl)-5-methyl-2-oxopyridin-1(2H)-yl]hexanoyl}amino)-3-(3-isopropoxyphenyl)propanoic acid], the 50% inhibitory concentration (IC50) is 5 nM.

For `CCCCC(C(=O)N[C@@H](CC(=O)O)c1ccc(C)cc1)n1cc(C)cc(Cc2ccccc2Cl)c1=O` (stereo partly drawn) [(3S)-3-({2-[3-(2-chlorobenzyl)-5-methyl-2-oxopyridin-1(2H)-yl]hexanoyl}amino)-3-(4-methylphenyl)propanoic acid], the IC50 is 15 nM.

For `CCCCC(C(=O)N[C@@H](CC(=O)O)c1ccccc1)n1cc(C)cc(Cc2ccccc2Cl)c1=O` (stereo partly drawn) [(3S)-3-({2-[3-(2-chlorobenzyl)-5-methyl-2-oxopyridin-1(2H)-yl]hexanoyl}amino)-3-phenylpropanoic acid], the concentration for half-maximal inhibition (IC50) is 12 nM.

Consider `CCCCC(C(=O)N[C@@H](CC(=O)O)c1cccc(OC(C)C)c1)n1cc(C)cc(Cc2ccccc2OCC)c1=O` (stereo partly drawn) [(3S)-3-({2-[3-(2-ethoxybenzyl)-5-methyl-2-oxopyridin-1(2H)-yl]hexanoyl}amino)-3-(3-isopropoxyphenyl)propanoic acid], for which the half-maximal inhibitory concentration (IC50) was 19 nM.

As for `CCCCC(C(=O)N[C@@H](CC(=O)O)c1cccc(OC(C)C)c1)n1cc(C)cc(Cc2cccc(Cl)c2)c1=O` (stereo partly drawn) [(3S)-3-({2-[3-(3-chlorobenzyl)-5-methyl-2-oxopyridin-1(2H)-yl]hexanoyl}amino)-3-(3-isopropoxyphenyl)propanoic acid], the half-inhibitory concentration (IC50) is 20 nM.

Regarding `CCCCC(C(=O)N[C@@H](CC(=O)O)c1cccc(OCCC)c1)n1cc(C)cc(Cc2cccc(Cl)c2)c1=O` (stereo partly drawn) [(3S)-3-({2-[3-(3-chlorobenzyl)-5-methyl-2-oxopyridin-1(2H)-yl]hexanoyl}amino)-3-(3-propoxyphenyl)propanoic acid], the concentration for half-maximal inhibition (IC50) was 23 nM.

On to `CCCCC(C(=O)N[C@@H](CC(=O)O)c1cccc(OC(C)C)c1)n1cc(C)cc(Cc2cccc(Cl)c2Cl)c1=O` (stereo partly drawn) [(3S)-3-({2-[3-[(2,3-dichlorophenyl)methyl]-5-methyl-2-oxo-1(2H)-pyridinyl]hexanoyl}amino)-3-{3-[(1-methylethyl)oxy]phenyl}propanoic acid], for which the half-inhibitory concentration (IC50) is 68 nM.

On to `CCCCC(C(=O)N[C@@H](CC(=O)O)c1cccc(OC(C)C)c1)n1cc(C)cc(Cc2ccc(F)cc2Cl)c1=O` (stereo partly drawn) [(3S)-3-({2-[3-[(2-chloro-4-fluorophenyl)methyl]-5-methyl-2-oxo-1(2H)-pyridinyl]hexanoyl}amino)-3-{3-[(1-methylethyl)oxy]phenyl}propanoic acid], for which the IC50 was 17 nM.

For the molecule `CCCCC(C(=O)N[C@@H](CC(=O)O)c1cccc(OC(C)C)c1)n1cc(C)cc(Cc2c(Cl)cc(Cl)cc2OC)c1=O` (stereo partly drawn) [(3S)-3-({2-[3-{[2,4-dichloro-6-(methyloxy)phenyl]methyl}-5-methyl-2-oxo-1(2H)-pyridinyl]hexanoyl}amino)-3-{3-[(1-methylethyl)oxy]phenyl}propanoic acid], the half-maximal inhibitory concentration (IC50) is 275 nM.

With `CCCCC(C(=O)N[C@@H](CC(=O)O)c1cccc(CC(C)C)c1)n1cc(C)cc(Cc2ccccc2)c1=O` (stereo partly drawn) [(3S)-3-({2-[5-methyl-2-oxo-3-(phenylmethyl)-1(2H)-pyridinyl]hexanoyl}amino)-3-[3-(2-methylpropyl)phenyl]propanoic acid], the half-maximal inhibitory concentration (IC50) was 10 nM.

On to `CCCCC(C(=O)N[C@@H](CC(=O)O)c1ccccc1)n1cc(C)cc(Cc2cccc3ccccc23)c1=O` (stereo partly drawn) [(3S)-3-({2-[5-methyl-3-(1-naphthalenylmethyl)-2-oxo-1(2H)-pyridinyl]hexanoyl}amino)-3-phenylpropanoic acid], for which the IC50 was 350 nM.

Consider `CCCCC(C(=O)N[C@@H](CC(=O)O)c1ccc(C)cc1)n1cc(C)cc(Cc2ccc3ccccc3c2)c1=O` (stereo partly drawn) [(3S)-3-({2-[5-methyl-3-(2-naphthalenylmethyl)-2-oxo-1(2H)-pyridinyl]hexanoyl}amino)-3-(4-methylphenyl)propanoic acid], for which the IC50 is 400 nM.

`CCCCC(C(=O)N[C@@H](CC(=O)O)c1ccccc1)n1cc(C)cc(Cc2ccc3ccccc3c2)c1=O` (stereo partly drawn) [(3S)-3-({2-[5-methyl-3-(2-naphthalenylmethyl)-2-oxo-1(2H)-pyridinyl]hexanoyl}amino)-3-phenylpropanoic acid]: the IC50 was 30 nM.

Regarding `CCCCC(C(=O)N[C@@H](CC(=O)O)c1ccccc1)n1cc(C)cc(Cc2ccccc2C)c1=O` (stereo partly drawn) [(3S)-3-({2-[5-methyl-3-[(2-methylphenyl)methyl]-2-oxo-1(2H)-pyridinyl]hexanoyl}amino)-3-phenylpropanoic acid], the concentration for half-maximal inhibition (IC50) is 25 nM.

For the molecule `CCCCC(C(=O)N[C@@H](CC(=O)O)c1cccc(-c2ccccc2)c1)n1cc(C)cc(Cc2ccccc2)c1=O` (stereo partly drawn) [(3S)-3-[1,1′-biphenyl]-3-yl-3-({2-[5-methyl-2-oxo-3-(phenylmethyl)-1(2H)-pyridinyl]hexanoyl}amino)propanoic acid], the 50% inhibitory concentration (IC50) was 250 nM.

With `CCCCC(C(=O)N[C@@H](CC(=O)O)c1cccc(N(CC)CC)c1)n1cc(C)cc(Cc2ccccc2)c1=O` (stereo partly drawn) [(3S)-3-[3-(diethylamino)phenyl]-3-({2-[5-methyl-2-oxo-3-{phenylmethyl)-1(2H)-pyridinyl]hexanoyl}amino)propanoic acid], the IC50 was 10 nM.

`CCCCC(C(=O)N[C@@H](CC(=O)O)c1cccc(C(F)F)c1)n1cc(C)cc(Cc2ccccc2)c1=O` (stereo partly drawn) [(3S)-3-[3-(difluoromethyl)phenyl]-3-({2-[5-methyl-2-oxo-3-(phenylmethyl)-1(2H)-pyridinyl]hexanoyl}amino)propanoic acid]: the IC50 was 20 nM.

For the molecule `CCCCC(C(=O)N[C@@H](CC(=O)O)c1ccc(C(C)C)cc1)n1cc(C)cc(Cc2ccccc2)c1=O` (stereo partly drawn) [(3S)-3-[4-(1-methylethyl)phenyl]-3-({2-[5-methyl-2-oxo-3-(phenylmethyl)-1(2H)-pyridinyl]hexanoyl}amino)propanoic acid], the concentration for half-maximal inhibition (IC50) is 160 nM.

On to `Cc1cc(C(C(=O)N[C@@H](CC(=O)O)c2cccc(OC(C)C)c2)c2ccccc2)c(=O)n(Cc2ccccc2)c1` (stereo partly drawn) [(3S)-3-{3-[(1-methylethyl)oxy]phenyl}-3-({2-[5-methyl-2-oxo-1-(phenylmethyl)-1,2-dihydro-3-pyridinyl]-2-phenylacetyl}amino)propanoic acid], for which the IC50 is 10 nM.

On to `CCCCC(C(=O)N[C@@H](CC(=O)O)c1cccc(OC(C)C)c1)n1cc(C)cc(Cc2cccc3ccccc23)c1=O` (stereo partly drawn) [(3S)-3-{3-[(1-methylethyl)oxy]phenyl}-3-({2-[5-methyl-3-(1-naphthalenylmethyl)-2-oxo-1(2H)-pyridinyl]hexanoyl}amino)propanoic acid], for which the IC50 is 67 nM.

For the molecule `CCCCC(C(=O)N[C@@H](CC(=O)O)c1cccc(OC(C)C)c1)n1cc(C)cc(Cc2ccc3ccccc3c2)c1=O` (stereo partly drawn) [(3S)-3-{3-[(1-methylethyl)oxy]phenyl}-3-({2-[5-methyl-3-(2-naphthalenylmethyl)-2-oxo-1(2H)-pyridinyl]hexanoyl}amino)propanoic acid], the IC50 is 20 nM.

As to `CCCCC(C(=O)N[C@@H](CC(=O)O)c1cccc(OC(C)C)c1)n1cc(C)cc(Cc2ccccc2C)c1=O` (stereo partly drawn) [(3S)-3-{3-[(1-methylethyl)oxy]phenyl}-3-({2-[5-methyl-3-[(2-methylphenyl)methyl]-2-oxo-1(2H)-pyridinyl]hexanoyl}amino)propanoic acid], the half-maximal inhibitory concentration (IC50) is 5 nM.

Turning to `CCCCC(C(=O)N[C@@H](CC(=O)O)c1ccc(C)c(OC(C)C)c1)n1cc(C)cc(Cc2ccccc2)c1=O` (stereo partly drawn) [(3S)-3-{4-methyl-3-[(1-methylethyl)oxy]phenyl}-3-({2-[5-methyl-2-oxo-3-(phenylmethyl)-1(2H)-pyridinyl]hexanoyl}amino)propanoic acid], the 50% inhibitory concentration (IC50) was 15 nM.
